Measurements taken from US6458840B2, “Use of valproic acid analog for the treatment and prevention of migraine and affective illness” (American Biogenetic Sciences, Inc., priority 1998, dated 2002).
≈ marks a conversion by molar mass, not a printed value. Where “and” joins values, the source holds several entries; their conditions need not be identical. Equal values may be shown once.

Legend:
[1] = Drug solubility test; type: physicochemical; conditions: read-out: concentration in drug solubility test
[2] = Open field observation, behavioral rating of adverse effects; type: in vivo, rat; conditions: for antaxia (1-6) / hypolocomotion (1-3) / muscle relaxation (1-3): 13′ after application, mean (X)
Description: (§1) Tests included open field observations, rotarod test and body temperature. Tests were always performed in the same manner in control and drug experiments at two different times, just before application of drug or vehicle and 13 minutes after application.
In addition to these quantitative estimations of neurological deficit, behavioral alterations observed after administration of 2-propyl-4-hexynoic acid and valproate noted in the cage and by placing the animals in an open field of 90-100 cm diameter. Muscle tone was estimated by palpation of the abdomen. The extent of deficits in behavior after administration of the compounds was determined by a rating system (Loscher et al. 1987). In short, animals were taken out of the cage, placed in an open field, observed for about 1 minute and rated separately for ataxia, abducted hindlimbs, reduced righting, flat body posture, circling, Straub tail, piloerection, hypolocomotion and hyperlocomotion (abdominal muscle tone was evaluated by palpation at the end of the period of observation). All other parameters except ataxia were scored from 0 to 3: 0-absent; 1-equivocal; 2-present; 3- intense. For ataxia (06): 1 -slight ataxia in hind-legs (tottering of the hind quarters); 2-more pronounced ataxia with dragging of hind legs; 3-further increase of ataxia and more pronounced dragging of hind legs; 4-marked ataxia, animals lose balance during forward locomotion; 5- very marked ataxia with frequent loss of balance during forward locomotion; 6-permanent loss of righting reflexes, but animal still attempts to move forward. Rectal body temperature was measured by an electronic thermometer. Body weight of the animals was recorded once daily before drug injection. Significance of differences in behavior between pre-drug and post-drug data determined in the same group of animals was calculated by the Wilcoxon signed rank test for paired replicates and for body temperature by Student's paired t-test (SigmaStat for Windows, version 1.0). Differences in body temperature were always compared only within the experimental day with the pre-drug time as control to one post-drug time.

[3] = Rotarod test (neurological deficit) in kindled rats; type: in vivo, rat
Description: as §1
The rotarod test was carried out with a rod of 6 cm diameter and rotation speed of 8 r.p.m. Neurological deficit was indicated by inability of the animals to maintain their equilibrium for at least 1 min on the rotating rod. Rats had to be trained prior to drug experiments to maintain their balance on the rod. After drug or vehicle treatment, rats which were not able to maintain their equilibrium on the rod for 1 minute were put again on the rod twice.

[4] = Plasma drug levels after treatment and kindling stimulation; type: in vivo, rat; conditions: same dose of both drugs, immediately after treatment and kindling stimulation; for Plasma Drug Levels, Average: average of 8 rats; for Plasma Drug Levels, individual rats: each line one rat (784-793)
Source text: Since there were differences in potencies between both compounds, plasma was obtained from rats immediately after treatment and kindling stimulation during one dose experiment.

[5] = 200 mg/kg i.p., listed as valproate
[6] = 50 mg/kg i.p., 13′ after application
[7] = 75 mg/kg i.p., 13′ after application
[8] = doses 50, 75, 100, 200 mg/kg i.p.

Structure (SMILES)	solubility [1] [mg/mL]	antaxia (1-6) ([2]; 200 mg/kg i.p.) [score]	hypolocomotion (1-3) ([2]; 200 mg/kg i.p.) [score]	muscle relaxation (1-3) ([2]; 200 mg/kg i.p.) [score]	rotarod-test, day of exper. [3, 6] [%]	rotarod-test, day of exper. [3, 7] [%]	Plasma Drug Levels, Average [4] [µg/mL]	Plasma Drug Levels, individual rats [4]	also measured
CCCC(CCC)C(=O)O [Valproate, valproic acid]	20 (≈ 139 mM)	2.75	1.00	2.00	0	0	182.26	197.82 µg/mL and 189.87 µg/mL and 168.89 µg/mL and 173.37 µg/mL and 205.44 µg/mL and 174.06 µg/mL and 157.83 µg/mL and 190.82 µg/mL	alterations in behavior, in words ([2]; 100 mg/kg i.p.): No alterations; further adverse effects, in words ([2]; 200 mg/kg i.p.): wet dog shakes; antaxia (1-6) [2, 5]: 2.8 score; hypolocomotion (1-3) [2, 5]: 1.0 score; muscle relaxation (1-3) [2, 5]: 2.0 score; rotarod test, in words ([3]; 100 mg/kg i.p.): performed without failure; rotarod-test, day of exper. ([3]; 100 mg/kg i.p., 13′ after application): 0%; rotarod test, in words ([3]; 200 mg/kg i.p.): performed without failure; rotarod-test, day of exper. ([3]; 200 mg/kg i.p., 13′ after application): 0%
CC#CCC(CCC)C(=O)O (centres unmarked) [2-propyl-4-hexynoic acid, 2-n-propyl-4-hexynoic acid]	18.5 (≈ 120 mM)	1.5	1.4	1.4	0	0	198.37	209.31 µg/mL and 201.34 µg/mL and 218.87 µg/mL and 154.89 µg/mL and 220.70 µg/mL and 180.10 µg/mL and 170.68 µg/mL and 225.95 µg/mL	BEHAVIOR (score) antaxia (1-6) ([2]; 200 mg/kg, 13′, mean of 8 rats): 1.50 score; BEHAVIOR (score) hypolocomotion (1-3) ([2]; 200 mg/kg, 13′, mean of 8 rats): 1.38 score; BEHAVIOR (score) muscle relaxation (1-3) ([2]; 200 mg/kg, 13′, mean of 8 rats): 1.38 score; BEHAVIOR (score) red. righting (1-3) ([2]; 200 mg/kg, 13′, mean of 8 rats): 0.75 score; adverse effects, in words [2, 8]: only observed at the highest dose of 200 mg/kg and were milder than with valproate; rotarod-test, day of exper. ([3]; 200 mg/kg, 13′, all 8 animals +): 0%; rotarod-test, in words [3, 8]: performed successfully by all individuals
